The values that follow come from patent US20240130368A1, “HERBICIDAL COMPOSITION” (Nippon Soda Co., Ltd., priority 2021, published 2024).

Common to all, as to type: in vivo
Experiment [1] relates to Triticum aestivum. Description: Test Example 5: spraying on the soil surface, herbicidal effect from above ground weight (useful plant). Particulars: Compound (I-3) alone, sprayed on the soil surface, seven weeks after spraying. As for the experimental part:
(§1) POA allylphenyl ether (4.1 parts by weight), POE-POP glycol (1 part by weight), POE sorbitan laurate (0.8 parts by weight), glycerin (2.6 parts by weight), dimethylformamide (65.9 parts by weight), N-methylpyrrolidone (5.1 parts by weight), cyclohexanone (15.4 parts by weight), and aromatic hydrocarbons (5.1 parts by weight) were mixed and dissolved to prepare an emulsion. The active ingredient (4 mg) of the composition of the present invention was dissolved in this emulsion (100 μL) to prepare a test emulsion. It should be noted that POA means “polyoxyalkylene”, POE means “polyoxyethylene”, and POP means “polyoxypropylene”.
(§2) For the evaluation of the herbicidal effects, the above ground weights of weeds in the untreated and treated areas were measured for each weed 3 weeks after spraying treatment, and the herbicidal effect (%) was calculated by the following calculation formula.
Herbicidal effect (%)=[(above ground weight of weeds in untreated area)−(above ground weight of weeds in treated area)/(above ground weight of weeds in untreated area)]×100
(§3) A test emulsion was prepared in the same manner as in Test Example 4.
A 300 cm^2 pot was filled with soil, and seeds of Triticum aestivum, multidrug-resistant Alopecurus myosuroides, Lolium multiflorum and Avena fatua were sown into the surface layer, and covered with soil to a thickness of 0.5 to 1 cm. The above test emulsion was diluted so that the amount of the active ingredient became a predetermined amount, and sprayed on the soil surface at a spray water volume of 250 L per hectare, followed by growth in an outdoor environment.
Seven weeks after spraying, the evaluation was carried out in the same manner as in Test Example 4, except that the above ground weights of weeds in the untreated and treated areas were measured for each weed.
The following plants were used as useful plants [scientific names]. • Wheat [Triticum aestivum]

The test system of experiment [2] is Zea mays. Description: Test Example 4: foliar spraying treatment, herbicidal effect from above ground weight (useful plant). Particulars: Compound (I-3) alone, 63 gai/ha, 3 weeks after spraying. As for the experimental part: as §1
A 300 cm^2 pot was filled with soil, and seeds of Zea mays, Setaria faberi, Sorghum halepense, Brachiaria platyphylla, Amaranthus palmeri, Senna obtusifolia and Ipomoea hederacea were sown into the surface layer, and then grown in a greenhouse after being covered lightly with soil. When each plant grew to a plant height of 7 to 11 cm, it was used for the test. The test emulsion was diluted so that the amount of the active ingredient became a predetermined amount, and sprayed on the foliage with a small sprayer at a spray water volume of 250 L per hectare.
as §2
In addition, the expected values of the herbicidal effects were calculated from the herbicidal effects in a case where the compound (I) alone was applied and the herbicidal effects in a case where the compound (II) alone was applied by using the Colby's formula (Colby, S. R., Calculating synergistic and antagonistic responses of herbicide combinations, Weeds, 15, pp. 20-22 (1967)). […]

Experiment [3] relates to Ipomoea hederacea. Nature of the experiment: Test Example 6: foliar spraying treatment, herbicidal effect from above ground weight. Particulars: Compound (I-3) alone. As to the method:
as §1, §3
(§4) A 300 cm^2 pot was filled with soil, and seeds of Zea mays and Ipomoea hederacea were sown into the surface layer, and then grown in a greenhouse after being covered lightly with soil. When each plant grew to a plant height of 7 to 9 cm, the above test emulsion was diluted so that the amount of the active ingredient became a predetermined amount, and sprayed on the foliage with a small sprayer at a spray water volume of 250 L per hectare.
(§5) Test Examples 6-1 and 6-3 were evaluated in the same manner as in Test Example 4.
(§6) The expected values of the herbicidal effects in Test Example 6-2 were calculated using the following Colby's formula (Colby, S. R., Calculating synergistic and antagonistic responses of herbicide combinations, Weeds, 15, pp. 20-22 (1967)).
(§7) X indicates an herbicidal effect (%) by applying the compound (1) alone, Y and Z each indicate an herbicidal effect (%) by applying one of the two types of the compounds (II) alone, and E indicates an expected value (%) of the herbicidal effect by applying combinations of the compound (I) and two types of the compounds (II).
(§8) When the actual measured value (%) of the herbicidal effect by the combined application of the compound (I) and two types of the compounds (11) is greater than the expected value E, it can be regarded that the combined application of the compound (1) and two types of the compounds (II) has a synergistic effect.
The following grass species were used as grass species to be controlled [scientific names]. • Morning glory [Ipomoea hederacea]

The subject of experiment [4] is Zea mays. Nature of the experiment: Test Example 6: foliar spraying treatment, herbicidal effect from above ground weight (useful plant). Particulars: Compound (I-3) alone. As for the experimental part:
as §1, §3, §4, §5, §6, §7, §8
The following plants were used as useful plants [scientific names]. • Corn for animal feed [Zea mays]

Experiment [5] concerns Abutilon theophrasti. Nature of the experiment: Test Example 3: seeds on filter paper moistened with chemical solution, herbicidal effect visually evaluated. Particulars: Compound (I-3) alone, 6 days after the treatment. As to the method: The compound (I) or compound (II) was prepared into a 5% emulsion using DMF (containing 1.5% Tween) and diluted with water to a prescribed dosage concentration. Commercially available preparations were dissolved in water and adjusted to a prescribed dosage concentration.
Seeds were soaked in 0.6% sodium hypochlorite for a predetermined time for surface sterilization and washed with water for use (seed disinfection). Seeds of Ambrosia artemisiifolia were used for the test.
Filter paper was placed on a cup (diameter: 10 cm, height: 4 cm) with a lid and moistened with 8 ml of chemical solution, and seeds were sown thereon, and after covering with a lid, grown in a constant temperature room.
The herbicidal effects were visually evaluated, 6 days after the treatment, as the herbicidal effect (%), by comparing with a state of an untreated group using a total of 21 scores of withering index from 0 to 20 (0: mortality rate equivalent to that of the untreated group, 20: mortality rate of 100%).
In addition, the expected values of the herbicidal effects were calculated from the herbicidal effects in a case where the compound (I) alone was applied and the herbicidal effects in a case where the compound (II) alone was applied by using the Colby's formula (Colby, S. R., Calculating synergistic and antagonistic responses of herbicide combinations, Weeds, 15, pp. 20-22 (1967)).
M indicates an herbicidal effect (%) in the application of the compound (I) alone, N indicates an herbicidal effect (%) in the application of the compound (II) alone, and E indicates an expected value (%) of the herbicidal effect in the combined application of the compound (T) and the compound (TT). When the actual measured value (%) of the herbicidal effect in the combined application of the compound (I) and the compound (II) is greater than the expected value E, it can be regarded that the combined application of the compound (I) and the compound (II) has a synergistic effect.
The herbicidal effects were evaluated by the same method as in Test Example 1 except that the seeds used in the test were changed from Ambrosia artemisiifolia to Abutilon theophrasti.

Structures are written as SMILES.

For the compound `COC12OC1(c1ccc(C(F)(F)F)c3c1CCCS3(=O)=O)C=NN(C)C2=O` (stereo not drawn) [Compound (I-3), 1-methoxy-3-methyl-6-(1,1-dioxido-8-(trifluoromethyl)thiochroman-5-yl)-7-oxa-3,4-diazabicyclo[4.1.0]hept-4-en-2-one], the “Actual measured value of herbicidal effect” value is 0% in experiment [1] (63 gai/ha); 0% in experiment [1] (125 gai/ha); 0% in experiment [2]; 80% in experiment [3] (94 gai/ha); 60% in experiment [3] (125 gai/ha); 0% in experiment [4] (94 gai/ha). In addition, the “Actual measured value of herbicidal effect” value in experiment [4] (125 gai/ha) came to 0%. Besides, the Herbicidal effect in experiment [5] (0.2 ppm) and in experiment [5] (3.1 ppm) was 75% throughout.
